Measured values: US9670227B2, “Thienopyrimidine derivatives, a process for their preparation and pharmaceutical compositions containing them” (LES LABORATOIRES SERVIER, priority 2013, dated 2017)
Read-outs that look alike come from different tables or passages of the source.

Target: Mcl-1 protein (UniProtKB primary accession number: Q07820) (Homo sapiens, UniProt Q07820)
Experiment: Inhibition of Mcl-1 by fluorescence polarisation, Method 1
Format: binding
Conditions: for percentage fluorescence polarisation inhibition, Mcl-1 FP: partial inhibitors; for IC50: read-out: IC50 (M) Mcl-1 FP
Outline: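 An 11-point DMSO dilution of compound is mixed with buffer (10 mM HEPES, 150 mM NaCl, 0.05% Tween 20, pH 7.4) carrying 1 nM fluorescein-labelled ligand and 5 nM Mcl-1, final concentrations. Displacement is monitored by fluorescence polarisation.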

[1] = fluorescence polarisation test, Method 2 values are underlined in the patent (underlining not visible here)
[2] = fluorescence polarisation, Method 1, or Method 2

Sequence of Mcl-1 protein (Q07820 whole entry): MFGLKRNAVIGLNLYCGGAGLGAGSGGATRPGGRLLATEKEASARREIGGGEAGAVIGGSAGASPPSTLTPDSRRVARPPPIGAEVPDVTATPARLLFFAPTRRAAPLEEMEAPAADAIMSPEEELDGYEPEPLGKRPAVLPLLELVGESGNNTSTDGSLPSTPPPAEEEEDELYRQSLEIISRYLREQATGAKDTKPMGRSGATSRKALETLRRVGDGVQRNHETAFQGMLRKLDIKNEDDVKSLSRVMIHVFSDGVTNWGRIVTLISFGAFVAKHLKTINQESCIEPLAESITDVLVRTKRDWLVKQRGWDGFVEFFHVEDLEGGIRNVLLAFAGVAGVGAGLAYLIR

IC50 [1] [M] | IC50 [2] [M] | SMILES | also measured
5.1e-09 | – | CCCCn1nccc1COc1ccccc1CC(Oc1ncnc2sc(-c3ccc(F)cc3)c(-c3ccc(OCCN4CCN(C)CC4)c(Cl)c3C)c12)C(=O)O [Example 83, (2R)-3-{2-[(1-butyl-1H-pyrazol-5-yl)methoxy]phenyl}-2-{[(5Sa)-5-{3-chloro-2-methyl-4-[2-(4-methylpiperazin-1-yl)ethoxy]phenyl}-6-(4-fluorophenyl)thieno[2,3-d]pyrimidin-4-yl]oxy}propanoic acid] | –
3.1e-08 | – | Cc1c(-c2c(-c3ccc(F)cc3)sc3ncnc(OC(Cc4ccccc4OCc4cnccn4)C(=O)O)c23)ccc(OCCN2CCOCC2)c1Cl [Example 148, (2R)-2-{[(5Sa)-5-{3-chloro-2-methyl-4-[2-(morpholin-4-yl)ethoxy]phenyl}-6-(4-fluorophenyl)thieno[2,3-d]pyrimidin-4-yl]oxy}-3-[2-(pyrazin-2-ylmethoxy)phenyl]propanoic acid] | –
4.3e-09 | – | Cc1ccncc1-c1nccc(COc2ccccc2CC(Oc2ncnc3sc(-c4ccc(F)cc4)c(-c4ccc(OCCN5CCN(C)CC5)c(Cl)c4C)c23)C(=O)O)n1 [Example 123, (2R)-2-{[(5Sa)-5-{3-chloro-2-methyl-4-[2-(4-methylpiperazin-1-yl)ethoxy]phenyl}-6-(4-fluorophenyl)thieno[2,3-d]pyrimidin-4-yl]oxy}-3-(2-{[2-(4-methylpyridin-3-yl)pyrimidin-4-yl]methoxy}phenyl)propanoic acid] | –

More lines, now with the values behind:

SMILES | IC50 [1] [M] | IC50 [2] [M] | also measured
COc1nccc(COc2ccccc2C[C@@H](Oc2ncnc3sc(-c4ccc(F)c(OCCN5CCN(C)CC5)c4)c(-c4ccc(OC)c(Cl)c4C)c23)C(=O)O)n1 [Example 697, (2R)-2-{[(5Ra)-5-(3-chloro-4-methoxy-2-methylphenyl)-6-{4-fluoro-3-[2-(4-methylpiperazin-1-yl)ethoxy]phenyl}thieno[2,3-d]pyrimidin-4-yl]oxy}-3-{2-[(2-methoxypyrimidin-4-yl)methoxy]phenyl}propanoic acid] | – | – | percentage fluorescence polarisation inhibition, Mcl-1 FP (@ 1 uM test compound): 45.55% @ 1 uM
CCCCn1nccc1COc1ccccc1CC(Oc1ncnc2sc(-c3ccc(F)o3)c(-c3ccc(OCCN4CCN(C)CC4)c(Cl)c3C)c12)C(=O)O [Example 188, (2R)-3-{2-[(1-butyl-1H-pyrazol-5-yl)methoxy]phenyl}-2-{[(5Sa)-5-{3-chloro-2-methyl-4-[2-(4-methylpiperazin-1-yl)ethoxy]phenyl}-6-(5-fluorofuran-2-yl)thieno[2,3-d]pyrimidin-4-yl]oxy}propanoic acid] | 6.4e-09 | – | –
CCOC(=O)[C@@H](Cc1ccccc1OCc1cnccn1)Oc1ncnc2sc(-c3ccc(F)cc3)c(-c3ccc(OCCN4CCN(C)CC4)c(Cl)c3C)c12 [Example 631, ethyl (2R)-2-{[(5Sa)-5-{3-chloro-2-methyl-4-[2-(4-methylpiperazin-1-yl)ethoxy]phenyl}-6-(4-fluorophenyl)thieno[2,3-d]pyrimidin-4-yl]oxy}-3-[2-(pyrazin-2-ylmethoxy)phenyl]propanoate] | – | – | percentage fluorescence polarisation inhibition, Mcl-1 FP (@ 10 uM test compound): 56% @ 10 uM
CCOC(=O)[C@@H](Cc1ccccc1OCC(F)(F)F)Oc1ncnc2sc(-c3ccc(F)cc3)c(-c3ccc(OCCN4CCOCC4)c(Cl)c3C)c12 [Example 637, ethyl (2R)-2-{[(5Sa)-5-{3-chloro-2-methyl-4-[2-(morpholin-4-yl)ethoxy]phenyl}-6-(4-fluorophenyl)thieno[2,3-d]pyrimidin-4-yl]oxy}-3-[2-(2,2,2-trifluoroethoxy)phenyl]propanoate] | – | – | percentage fluorescence polarisation inhibition, Mcl-1 FP (@ 10 uM test compound): 5.9% @ 10 uM
Cc1c(-c2c(C#N)sc3ncnc(OC(Cc4ccccc4)C(=O)O)c23)ccc(OCCN2CCN(C)CC2)c1Cl [Example 521, (2R)-2-[((5Sa)-5-{3-chloro-2-methyl-4-[2-(4-methylpiperazin-1-yl)ethoxy]phenyl}-6-cyanothieno[2,3-d]pyrimidin-4-yl)oxy]-3-phenylpropanoic acid] | – | 2.4e-07 | –
Cc1c(-c2c(-c3ccnn3C)sc3ncnc(OC(Cc4ccccc4)C(=O)O)c23)ccc(OCCN2CCN(C)CC2)c1Cl [Example 508, (2R)-2-{[(5Sa)-5-{3-chloro-2-methyl-4-[2-(4-methylpiperazin-1-yl)ethoxy]phenyl}-6-(1-methyl-1H-pyrazol-5-yl)thieno[2,3-d]pyrimidin-4-yl]oxy}-3-phenylpropanoic acid] | – | 3.7e-07 | –
CCc1sc2ncnc(OC(Cc3ccccc3)C(=O)O)c2c1-c1ccc(O)cc1C [Example 448, (2R)-2-{[6-ethyl-(5Ra)-5-(4-hydroxy-2-methylphenyl)thieno[2,3-d]pyrimidin-4-yl]oxy}-3-phenylpropanoic acid] | – | 4.4e-07 | –
COCCc1nccc(COc2ccccc2CC(Oc2ncnc3sc(-c4ccc(F)o4)c(-c4ccc(OCCN5CCN(C)CC5)c(Cl)c4C)c23)C(=O)O)n1 [Example 174, (2R)-2-{[(5Sa)-5-{3-chloro-2-methyl-4-[2-(4-methylpiperazin-1-yl)ethoxy]phenyl}-6-(5-fluorofuran-2-yl)thieno[2,3-d]pyrimidin-4-yl]oxy}-3-(2-{[2-(2-methoxyethyl)pyrimidin-4-yl]methoxy}phenyl)propanoic acid] | 2.3e-09 | – | –
CCc1sc2ncnc(OC(Cc3ccccc3)C(=O)O)c2c1-c1cc([N+](=O)[O-])c(O)c(Cl)c1C [Example 426, (2R)-2-{[(5Sa)-5-(3-chloro-4-hydroxy-2-methyl-5-nitrophenyl)-6-ethylthieno[2,3-d]pyrimidin-4-yl]oxy}-3-phenylpropanoic acid] | – | 4.6e-09 | –
CC#Cc1sc2ncnc(O[C@H](Cc3ccccc3OCc3ccnc(-c4ccccc4OC)n3)C(=O)O)c2c1-c1ccc(OCCN2CCN(C)CC2)c(Cl)c1C [Example 482, (2R)-2-{[(5Sa)-5-{3-chloro-2-methyl-4-[2-(4-methylpiperazin-1-yl)ethoxy]phenyl}-6-(prop-1-yn-1-yl)thieno[2,3-d]pyrimidin-4-yl]oxy}-3-(2-{[2-(2-methoxyphenyl)pyrimidin-4-yl]methoxy}phenyl)propanoic acid] | – | 7.4e-09 | –
COc1ccccc1-c1nccc(COc2ccccc2CC(Oc2ncnc3sc(-c4ccc(F)cc4)c(-c4ccc(OCCN5CCN(C)CC5)c(Cl)c4C)c23)C(=O)OC(C)OC(=O)C(C)C)n1 [Example 861, 1-[(2-methylpropanoyl)oxy]ethyl (2R)-2-{[(5Sa)-5-{3-chloro-2-methyl-4-[2-(4-methylpiperazin-1-yl)ethoxy]phenyl}-6-(4-fluorophenyl)thieno[2,3-d]pyrimidin-4-yl]oxy}-3-(2-{[2-(2-methoxyphenyl)pyrimidin-4-yl]methoxy}phenyl)propanoate] | – | – | IC50 (fluorescence polarisation test, Method 1, or Method 2 where the value is underlined (underlining not visible)): 5.77e-07 M
CCc1sc2ncnc(OC(Cc3ccccc3)C(=O)O)c2c1-c1ccc(O)cc1C [Example 447, (2R)-2-{[6-ethyl-(5Sa)-5-(4-hydroxy-2-methylphenyl)thieno[2,3-d]pyrimidin-4-yl]oxy}-3-phenylpropanoic acid] | – | 6.8e-08 | –
CCc1sc2ncnc(OC(Cc3ccccc3)C(=O)O)c2c1-c1ccc(OCC(=O)N2CCN(C)CC2)c(Cl)c1C [Example 392, (2R)-2-[((5Sa)-5-{3-chloro-2-methyl-4-[2-(4-methylpiperazin-1-yl)-2-oxoethoxy]phenyl}-6-ethylthieno[2,3-d]pyrimidin-4-yl)oxy]-3-phenylpropanoic acid] | 3e-08 | – | –
